From patent US20200338084A1, “INHIBITORS OF LOW MOLECULAR WEIGHT PROTEIN TYROSINE PHOSPHATASE (LMPTP) AND USES THEREOF” (Sanford Burnham Prebys Medical Discovery Institute, priority 2018, published 2020)

Molecular target: T1, human LMPTP-A (Homo sapiens, UniProt P24666)
T1 sequence (P24666 1-158): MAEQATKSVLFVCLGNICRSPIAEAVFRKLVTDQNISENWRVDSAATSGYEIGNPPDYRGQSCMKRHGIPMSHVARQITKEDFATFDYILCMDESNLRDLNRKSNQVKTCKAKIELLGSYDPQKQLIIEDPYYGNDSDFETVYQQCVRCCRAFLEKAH
Assay: Enzyme Assay of Inhibition of LMPTP-A
Format: biochemical
Conditions: phosphatase assay, OMFP or pNPP substrate, 50 mM Bis-Tris pH 6.0, 37° C.
Protocol: Phosphatase assays were performed in buffer containing 50 mM Bis-Tris, pH 6.0, 1 mM DTT and 0.01% Triton X-100 at 37° C. For assays conducted with 3-O-methylfluorescein phosphate (OMFP) as substrate, fluorescence was monitored continuously at λex=485 and λem=525 nm. For assays conducted with para-nitrophenylphosphate (pNPP) as substrate, the reaction was stopped by addition of 2× reaction volume of 1 M NaOH, and absorbance was measured at 405 nm. IC50 values of compounds disclosed herein were determined from plots of inhibitor concentration versus percentage of enzyme activity. For inhibitor selectivity assays, each PTP was incubated with either 0.4 mM OMFP or 5 mM pNPP in the presence of 40 μM compound or DMSO. […] For the inhibitor reversibility assay, 50 nM human LMPTP-A was pre-incubated with 10 μM of compound disclosed herein or DMSO for 5 min. The enzyme was diluted 100× in phosphatase assay buffer containing 0.4 mM OMFP and fluorescence was measured at the indicated time points.

| Molecule | IC50 [nM] |
| --- | --- |
| Nc1ncn(Cc2c(F)cccc2F)c2ncnc1-2 | 1000 to 20000 |
| 3-[(2,6-dichlorophenyl)methyl]-8-[(4-chlorophenyl)methyl]-3-hydropurine-6-ylamine | ≤ 1000 |
| 8-[(1E)-2-(4-fluorophenyl)vinyl]-3-[(2,6-dichlorophenyl)methyl]-3-hydropurine-6-ylamine | ≤ 1000 |
| CC(=O)c1ccc(Nc2ncn(Cc3c(Cl)cccc3Cl)c3ncnc2-3)cc1 [1-Acetyl-4-({3-[(2,6-dichlorophenyl)methyl](3-hydropurin-6-yl)}amino)benzene] | 1000 to 20000 |
| COC(=O)c1cccc(Cl)c1Cn1cnc(N)c2ncnc1-2 [2-(6-Amino-purin-3-ylmethyl)-3-chloro-benzoic acid methyl ester] | ≤ 1000 |
| N#Cc1ccccc1Cn1cnc(NCc2ccco2)c2ncnc1-2 [2-((6-((Furan-2-ylmethyl)amino)-3H-purin-3-yl)methyl)benzonitrile] | ≥ 20000 |
| NC(=O)c1cccc(Cl)c1Cn1cnc(N)c2ncnc1-2 [2-((6-amino-3H-purin-3-yl)methyl)-3-chlorobenzamide] | ≤ 1000 |
| Nc1ncn(Cc2c(Cl)cccc2C(=O)O)c2ncnc1-2 [2-((6-amino-3H-purin-3-yl)methyl)-3-chlorobenzoic acid] | 1000 to 20000 |
| N#Cc1cccc(Cl)c1Cn1cnc(N)c2ncnc1-2 [2-((6-amino-3H-purin-3-yl)methyl)-3-chlorobenzonitrile] | ≤ 1000 |
| Oc1ccccc1Nc1ncn(Cc2c(Cl)cccc2Cl)c2ncnc1-2 [2-({3-[(2,6-Dichlorophenyl)methyl]-3-hydropurin-6-yl}amino)phenol] | 1000 to 20000 |
| OCCNc1ncn(Cc2c(Cl)cccc2Cl)c2ncnc1-2 [2-[3-(2,6-Dichloro-benzyl)-3H-purin-6-ylamino]-ethanol] | 1000 to 20000 |
| N#Cc1ccccc1-c1nc2c(N)ncn(Cc3c(Cl)cccc3Cl)c-2n1 [2-{6-Amino-3-[(2,6-dichlorophenyl)methyl]-3-hydropurin-8-yl}benzenecarbonitrile] | ≤ 1000 |
| Nc1ncn(Cc2c(F)ccc(F)c2F)c2ncnc1-2 [3-(2,3,6-Trifluoro-benzyl)-3H-purin-6-ylamine] | 1000 to 20000 |
| Nc1ncn(Cc2cccc(Cl)c2Cl)c2ncnc1-2 [3-(2,3-Dichloro-benzyl)-3H-purin-6-ylamine] | 1000 to 20000 |
| Clc1cccc(Cn2cnc(NCc3ccco3)c3ncnc2-3)c1Cl [3-(2,3-dichlorobenzyl)-N-(furan-2-ylmethyl)-3H-purin-6-amine] | 1000 to 20000 |
| Nc1ncn(Cc2ccc(Cl)cc2Cl)c2ncnc1-2 [3-(2,4-Dichloro-benzyl)-3H-purin-6-ylamine] | 1000 to 20000 |
| Nc1ncn(Cc2ccc(F)cc2F)c2ncnc1-2 [3-(2,4-difluorobenzyl)-3H-purin-6-amine] | 1000 to 20000 |
| Nc1ncn(Cc2cc(Cl)ccc2Cl)c2ncnc1-2 [3-(2,5-Dichloro-benzyl)-3H-purin-6-ylamine] | 1000 to 20000 |
| Clc1cccc(Cl)c1Cn1cnc(N2CCOCC2)c2ncnc1-2 [3-(2,6-Dichloro-benzyl)-6-morpholin-4-yl-3H-purine] | ≥ 20000 |
| Clc1cccc(Cl)c1Cn1cnc(N2CCCCC2)c2ncnc1-2 [3-(2,6-Dichloro-benzyl)-6-piperidin-1-yl-3H-purine] | ≥ 20000 |

| Molecule | IC50 [nM] |
| --- | --- |
| Clc1cccc(Cl)c1Cn1cnc(N2CCCC2)c2ncnc1-2 [3-(2,6-Dichloro-benzyl)-6-pyrrolidin-1-yl-3H-purine] | ≥ 20000 |
| Nc1ncn(Cc2c(Cl)cccc2Cl)c2nc(C3=CCNCC3)nc1-2 [3-(2,6-Dichloro-benzyl)-8-(1,2,3,6-tetrahydro-pyridin-4-yl)-3H-purin-6-ylamine] | ≤ 1000 |
| FC(F)(F)Oc1cccc(Nc2ncn(Cc3c(Cl)cccc3Cl)c3ncnc2-3)c1 [3-(2,6-Dichlorobenzyl)-N-(3-(trifluoromethoxy)phenyl)-3H-purin-6-amine] | 1000 to 20000 |
| FC(F)Oc1ccc(Nc2ncn(Cc3c(Cl)cccc3Cl)c3ncnc2-3)cc1 [3-(2,6-Dichlorobenzyl)-N-(4-(difluoromethoxy)phenyl)-3H-purin-6-amine] | 1000 to 20000 |
| COc1ccc(Nc2ncn(Cc3c(Cl)cccc3Cl)c3ncnc2-3)cc1 [3-(2,6-Dichlorobenzyl)-N-(4-methoxyphenyl)-3H-purin-6-amine] | 1000 to 20000 |
| Cc1cccc(C)c1Cn1cnc(NCc2ccco2)c2ncnc1-2 [3-(2,6-Dimethylbenzyl)-n-(furan-2-ylmethyl)-3h-purin-6-amine] | 1000 to 20000 |
| Nc1ncn(Cc2c(Br)cccc2Br)c2ncnc1-2 [3-(2,6-dibromobenzyl)-3H-purin-6-amine] | ≤ 1000 |
| Cc1noc(C)c1-c1nc2c(N)ncn(Cc3c(Cl)cccc3Cl)c-2n1 [3-(2,6-dichlorobenzyl)-8-(3,5-dimethylisoxazol-4-yl)-3H-purin-6-amine] | ≤ 1000 |
| Nc1ncn(Cc2c(Cl)cccc2Cl)c2nc(C3=CCOCC3)nc1-2 [3-(2,6-dichlorobenzyl)-8-(3,6-dihydro-2H-pyran-4-yl)-3H-purin-6-amine] | ≤ 1000 |
| COc1ccc(CNc2ncn(Cc3c(Cl)cccc3Cl)c3ncnc2-3)c(OC)c1 [3-(2,6-dichlorobenzyl)-N-(2,4-dimethoxybenzyl)-3H-purin-6-amine] | 1000 to 20000 |
| FC(F)Oc1ccccc1Nc1ncn(Cc2c(Cl)cccc2Cl)c2ncnc1-2 [3-(2,6-dichlorobenzyl)-N-(2-(difluoromethoxy)plienyl)-3H-purin-6-amine] | 1000 to 20000 |
| FC(F)Oc1cccc(Nc2ncn(Cc3c(Cl)cccc3Cl)c3ncnc2-3)c1 [3-(2,6-dichlorobenzyl)-N-(3-(difluoromethoxy)phenyl)-3H-purin-6-amine] | 1000 to 20000 |
| FC(F)(F)c1cccc(Nc2ncn(Cc3c(Cl)cccc3Cl)c3ncnc2-3)c1 [3-(2,6-dichlorobenzyl)-N-(3-(trifluoromethyl)phenyl)-3H-purin-6-amine] | 1000 to 20000 |
| FC(F)(F)c1ccc(Nc2ncn(Cc3c(Cl)cccc3Cl)c3ncnc2-3)cc1 [3-(2,6-dichlorobenzyl)-N-(4-(trifluoromethyl)phenyl)-3H-purin-6-amine] | 1000 to 20000 |
| Cc1cccc(C)c1Cn1cnc(N)c2ncnc1-2 [3-(2,6-dimethylbenzyl)-3H-purin-6-amine] | 1000 to 20000 |
| Nc1cccc(Cl)c1Cn1cnc(N)c2ncnc1-2 [3-(2-Amino-6-chlorobenzyl)-3H-purin-6-amine] | 1000 to 20000 |
| Nc1ncn(Cc2ccccc2Br)c2ncnc1-2 [3-(2-Bromo-benzyl)-3H-purin-6-ylamine] | 1000 to 20000 |
| Nc1ncn(Cc2c(F)cccc2Cl)c2ncnc1-2 [3-(2-Chloro-6-fluoro-benzyl)-3H-purin-6-ylamine] | ≤ 1000 |
| Nc1ncn(Cc2c(Cl)cccc2I)c2ncnc1-2 [3-(2-Chloro-6-iodo-benzyl)-3H-purin-6-ylamine] | ≤ 1000 |
| Nc1ncn(Cc2c(Cl)cccc2[N+](=O)[O-])c2ncnc1-2 [3-(2-Chloro-6-nitrobenzyl)-3H-purin-6-amine] | ≤ 1000 |

| Molecule | IC50 [nM] |
| --- | --- |
| Nc1ncn(Cc2ccccc2Cl)c2ncnc1-2 [3-(2-Chloro-benzyl)-3H-purin-6-ylamine] | 1000 to 20000 |
| Nc1ncn(Cc2c(F)cccc2I)c2ncnc1-2 [3-(2-Fluoro-6-iodo-benzyl)-3H-purin-6-ylamine] | ≤ 1000 |
| Nc1ncn(Cc2ccccc2F)c2ncnc1-2 [3-(2-Fluoro-benzyl)-3H-purin-6-ylamine] | 1000 to 20000 |
| Cc1ccccc1Cn1cnc(N)c2ncnc1-2 [3-(2-Methyl-benzyl)-3H-purin-6-ylamine] | 1000 to 20000 |
| Nc1ncn(Cc2c(Cl)cccc2Br)c2ncnc1-2 [3-(2-bromo-6-chlorobenzyl)-3H-purin-6-amine] | ≤ 1000 |
| COc1cccc(Cl)c1Cn1cnc(N)c2ncnc1-2 [3-(2-chloro-6-methoxybenzyl)-3H-purin-6-amine] | 1000 to 20000 |
| Cc1cccc(Cl)c1Cn1cnc(N)c2ncnc1-2 [3-(2-chloro-6-methylbenzyl)-3H-purin-6-amine] | ≤ 1000 |
| Nc1ncn(Cc2cccc(F)c2)c2ncnc1-2 [3-(3-Fluoro-benzyl)-3H-purin-6-ylamine] | 1000 to 20000 |
| Nc1ncn(Cc2cccc(Cl)c2)c2ncnc1-2 [3-(3-chlorobenzyl)-3H-purin-6-amine] | ≥ 20000 |
| Nc1ncn(Cc2ccc(C(F)(F)F)cc2)c2ncnc1-2 [3-(4-(trifluoromethyl)benzyl)-3H-purin-6-amine] | 1000 to 20000 |
| Nc1ncn(Cc2ccc(Br)cc2)c2ncnc1-2 [3-(4-Bromo-benzyl)-3H-purin-6-ylamine] | 1000 to 20000 |
| Nc1ncn(Cc2ccc(Cl)cc2)c2ncnc1-2 [3-(4-Chloro-benzyl)-3H-purin-6-ylamine] | ≥ 20000 |
| COc1ccc(Cn2cnc(N)c3ncnc2-3)cc1 [3-(4-Methoxy-benzyl)-3H-purin-6-ylamine] | 1000 to 20000 |
| Cc1ccc(Cn2cnc(N)c3ncnc2-3)cc1 [3-(4-Methyl-benzyl)-3H-purin-6-ylamine] | ≥ 20000 |
| Nc1ncn(Cc2ccc(F)cc2)c2ncnc1-2 [3-(4-fluorobenzyl)-3H-purin-6-amine] | ≥ 20000 |
| Nc1ncn(Cc2cccc(O)c2)c2ncnc1-2 [3-(6-Amino-purin-3-ylmethyl)-phenol] | 1000 to 20000 |
| Cc1cccc(Cn2cnc(N)c3ncnc2-3)n1 [3-(6-Methyl-pyridin-2-ylmethyl)-3H-purin-6-ylamine] | ≥ 20000 |
| Cn1ccnc1Cn1cnc(N)c2ncnc1-2 [3-((1-methyl-1H-imidazol-2-yl)methyl)-3H-purin-6-amine] | ≥ 20000 |
